Laboratory results published in US20230009608A1, “GRK2 INHIBITORS AND USES THEREOF” (Cygnal Therapeutics, Inc., priority 2020, published 2023).
pIC50: −log10 of the molar value. Read-outs that look alike come from different tables or passages of the source.

What was measured:
[1] = test system: PAXF1657 control empty vector cell line; assay: 7-day proliferation assay, PAXF1657 control empty vector cell line (Example 9); type: cell-based; settings: 168 h; Cell Line: PAXF1657 empty vector (EV) cell line; 7-day; read-out: C: 7-day proliferation assay: IC50 GeoMean
How it was run: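 Cells plated at 500 per well and attached overnight. Next, 10-point inhibitor series added (30 μM-0.0002 μM, 0.3% DMSO) and a day-0 viability plate read. Then, after 3 days, medium with fresh compound. Finally, viability after 4 more days via CellTiter-Glo.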

GRK2 = target: T1, GRK2 (Homo sapiens, UniProt P25098); assay: GRK2 Inhibition Assay (TR-FRET, Example 7); type: biochemical; settings: for IC50: read-out: B: Enzymatic GRK2: IC50 (nM) (Example 7)
T1 construct: purchased SignalChem A14-10G
T1 sequence (P25098 1-689): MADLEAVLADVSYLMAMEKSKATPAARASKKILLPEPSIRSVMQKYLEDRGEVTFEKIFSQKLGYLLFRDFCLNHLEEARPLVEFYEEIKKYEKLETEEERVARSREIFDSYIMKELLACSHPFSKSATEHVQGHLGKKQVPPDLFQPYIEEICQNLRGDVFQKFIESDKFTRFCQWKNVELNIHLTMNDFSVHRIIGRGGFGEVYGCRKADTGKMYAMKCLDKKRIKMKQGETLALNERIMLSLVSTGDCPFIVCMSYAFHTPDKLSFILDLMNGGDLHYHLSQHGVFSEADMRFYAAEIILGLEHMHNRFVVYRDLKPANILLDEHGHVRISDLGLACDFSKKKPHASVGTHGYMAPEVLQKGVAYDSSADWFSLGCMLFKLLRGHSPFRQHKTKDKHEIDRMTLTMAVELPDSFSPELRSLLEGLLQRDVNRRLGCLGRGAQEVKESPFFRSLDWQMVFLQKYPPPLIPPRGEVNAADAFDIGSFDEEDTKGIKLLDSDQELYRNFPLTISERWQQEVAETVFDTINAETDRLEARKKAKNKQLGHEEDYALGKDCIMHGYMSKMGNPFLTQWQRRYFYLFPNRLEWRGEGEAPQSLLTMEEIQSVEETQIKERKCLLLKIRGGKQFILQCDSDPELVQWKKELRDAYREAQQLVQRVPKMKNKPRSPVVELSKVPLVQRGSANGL
Procedure: Enzyme GRK2 (1 nM final concentration) was diluted in 25 mMv HEPES, 10 mM MgCl2, 2 mM DTT, 0.01% Tween-20, and 1 mM EGTA. Then the GRK2 mixture was added into ProxiPlate-384 white plate and pre-incubated for 30 min with test compounds at room temperature. ATP (7 μM final concentration) and Ulight TopoIIα (50 nM final concentration) were added into the assay plate to initiate the reaction and the mixture was incubated at room temperature for 90 min. Then, Eu anti-TopoIIα (0.12 nM final concentration), BSA (0.01% final concentration), and EDTA (11 mMv final concentration) in LANCE assay buffer were added into each well. After 60 min incubation time at room temperature, TR-FRET signal was measured by EnVision plate reader.

[2] = Enzyme Assay B, TR-FRET (Example 7)

| IC50 (GRK2; [2]) | IC50 (GRK2; TR-FRET GRK2 enzyme assay) | Compound | pIC50 [1] | pIC50 (GRK2) |
| --- | --- | --- | --- | --- |
| 2.6 nM | – | O=C(N[C@H]1CCOc2ccccc21)c1cccc(NCc2nnc3n2CCOc2cnccc2-3)c1 | < 4.52 | – |
| 3.3 nM | – | Cn1c(CNc2cccc(C(=O)N[C@@H]3CCOc4c3ccc(F)c4F)c2)nnc1-c1ccncn1 | 6.75 | – |
| 15 nM | – | COCCCn1c(CNc2cccc(C(=O)NCc3cccnc3C(F)(F)F)c2)nnc1-c1ccncn1 | 5.92 | – |
| 48 nM | – | Cc1ccc2c(c1)[C@H](NC(=O)c1cccc(NCc3nnc(-c4ccncn4)n3C)c1)CC(C)(C)O2 | < 4.52 | – |
| 1900 nM | – | Cn1c(CNc2cccc(C(=O)N[C@@H]3CCOc4cc(F)ccc43)c2)nnc1-c1ccncn1 | 6.77 | – |
| 39 nM | – | COCCOc1cccc(CNC(=O)c2cccc(NCc3nnc(-c4ccncn4)n3C)c2)c1 | 6.11 | – |
| 41 nM | – | CCc1cnccc1CNC(=O)c1cccc(NCc2nnc(-c3ccncc3F)n2C)c1 | 5.83 | – |
| 45 nM | – | Cn1c(CNc2cccc(C(=O)N[C@@H]3CC(C)(C)Oc4ccccc43)c2)nnc1-c1ccncn1 | 5.04 | – |
| 5.8 nM | – | O=C(NCc1cccnc1C(F)(F)F)c1cccc(NCc2nnc(-c3ccncn3)n2CCCO)c1 | < 4.52 | – |
| 210 nM | – | Cc1ccc2c(c1)[C@@H](NC(=O)c1cccc(NCc3nnc(-c4ccncn4)n3C)c1)CCO2 | < 4.52 | – |
| < 0.51 nM | – | C[C@@H](NC(=O)c1cccc(NCc2nnc(-c3ccncn3)n2CCO)c1)c1ncccc1Cl | 6.10 | – |
| 2.5 nM | – | Cc1cccnc1CNC(=O)c1cccc(NCc2nnc(-c3ccncn3)n2CCO)c1 | 5.94 | – |
| < 0.51 nM | – | O=C(N[C@H]1COc2ccccc21)c1cccc(NCc2nnc(-c3ccncn3)n2CCO)c1 | 6.97 | – |
| 2 nM | – | CCCn1c(CNc2cccc(C(=O)NCc3cccc4c3OCC4)c2)nnc1-c1ccncn1 | < 4.52 | – |
| 2.9 nM | – | Cn1c(CNc2cccc(C(=O)N[C@@H]3CCOc4ccc(Cl)cc43)c2)nnc1-c1ccncn1 | 7.47 | – |
| 11 nM | – | Cn1c(CNc2cc(C(=O)NCc3cccnc3C(F)(F)F)ccn2)nnc1-c1ccncn1 | < 4.52 | – |
| – | 4.9 nM | Cn1c(CNc2cccc(C(=O)N[C@H](C#N)c3ccc(F)cc3F)c2)nnc1-c1ccncn1 | 6.91 | – |

| IC50 (GRK2; [2]) | IC50 (GRK2; TR-FRET GRK2 enzyme assay) | Compound | pIC50 [1] | pIC50 (GRK2) |
| --- | --- | --- | --- | --- |
| 5.3 nM | – | CCCn1c(CNc2cccc(C(=O)NCc3cccc(F)c3)c2)nnc1-c1ccncn1 | 4.72 | – |
| 510 nM | – | Cn1c(CNc2cccc(C(=O)N[C@@H]3CCOc4ccc(Br)cc43)c2)nnc1-c1ccncn1 | < 4.52 | – |
| 13 nM | – | Cn1c(CNc2cccc(C(=O)N[C@@H]3CCOc4c(Br)cccc43)c2)nnc1-c1ccncn1 | 5.79 | – |
| 2.3 nM | – | CCCn1c(CNc2cccc(C(=O)N[C@H]3CCOc4ccccc43)c2)nnc1-c1ccncn1 | < 4.52 | – |
| 22 nM | – | CCCn1c(CNc2cccc(C(=O)NC3(c4ccccc4)CCOCC3)c2)nnc1-c1ccncn1 | 5.03 | – |
| 1500 nM | – | Cn1c(CNc2cccc(C(=O)N[C@H]3CCOc4c3ccc(F)c4F)c2)nnc1-c1ccncn1 | < 4.52 | – |
| 56 nM | – | Cn1c(CNc2cccc(C(=O)N[C@@H]3CCOc4cc(C(F)(F)F)ccc43)c2)nnc1-c1ccncn1 | 7.03 | – |
| 13 nM | – | O=C(NCc1cccnc1C(F)(F)F)c1cccc(NCc2nnc(-c3ccncc3)[nH]2)c1 | < 4.52 | – |
| – | 5.5 nM | Cn1c(CNc2cccc(C(=O)N[C@@H](C#N)c3ccccc3F)c2)nnc1-c1ccncn1 | 7.23 | – |
| 8.4 nM | – | Cn1c(CNc2cccc(C(=O)N[C@@H]3CCOc4cc(Cl)ccc43)c2)nnc1-c1ccncn1 | 6.62 | – |
| 1.5 nM | – | O=C(N[C@H]1CCOc2c(Cl)cccc21)c1cccc(NCc2nnc(-c3ccncn3)n2CCO)c1 | 6.79 | – |
| 3.5 nM | – | O=C(NCc1cccnc1C(F)(F)F)c1cccc(NCc2nnc3n2CCOc2cnccc2-3)c1 | 5.18 | – |
| 3.8 nM | – | Cn1c(CNc2cccc(C(=O)N[C@@H]3CCOc4c3cccc4C(F)(F)F)c2)nnc1-c1ccncn1 | < 6.01 | – |
| 15 nM | – | COc1ncccc1CNC(=O)c1cccc(NCc2nnc(-c3ccncc3)n2C)c1 | 6.09 | – |
| 9.2 nM | – | O=C(NCc1cccc(F)c1)c1cccc(NCc2nnc(-c3ccncc3)n2CCO)c1 | < 4.52 | – |
| 1.4 nM | – | COc1cccc(OC)c1CNC(=O)c1cccc(NCc2nnc(-c3ccncc3)[nH]2)c1 | 6.01 | – |
| 5.2 nM | – | O=C(NCc1cccnc1C(F)(F)F)c1cccc(NCc2nnc(-c3ccncc3)n2CCO)c1 | < 4.52 | – |

Continued, molecule first:

| Compound | IC50 (GRK2; [2]) | IC50 (GRK2; TR-FRET GRK2 enzyme assay) | pIC50 [1] | pIC50 (GRK2) |
| --- | --- | --- | --- | --- |
| Cn1c(CNc2cccc(C(=O)N[C@H](C#N)c3ccccc3F)c2)nnc1-c1ccncn1 | – | 6.8 nM | 7.08 | – |
| C#Cc1ccc(OS(=O)(=O)F)c(CNC(=O)c2cccc(NCc3nnc(-c4ccncc4)[nH]3)c2)c1 | 13 nM | – | < 5.12 | – |
| O=C(NCc1cccc(OS(=O)(=O)F)c1)c1cccc(NCc2nnc(-c3ccncc3)n2CCCO)c1 | – | – | < 4.52 | 7.30 |
| O=C(NCc1ccncc1Cl)c1cccc(NCc2nnc(-c3ccncn3)n2CCO)c1 | < 2.9 nM | – | < 5.53 | – |
| C[C@@H](NC(=O)c1ccnc(NCc2nnc(-c3ccncn3)n2C)c1)c1ncccc1Cl | 55 nM | – | < 4.52 | – |
| Cn1c(CNc2cccc(C(=O)N[C@H]3CCOc4c3cccc4C(F)(F)F)c2)nnc1-c1ccncn1 | 9.7 nM | – | < 4.52 | – |
| CCCn1c(CNc2cccc(C(=O)NCc3cccnc3C(F)(F)F)c2)nnc1-c1ccncn1 | 2.6 nM | – | 6.18 | – |
| O=C(NC1(c2ccccc2)CCOCC1)c1cccc(NCc2nnc3n2CCOc2cnccc2-3)c1 | 39 nM | – | 4.69 | – |
| Cc1ccc2c(c1)[C@H](NC(=O)c1cccc(NCc3nnc(-c4ccncn4)n3C)c1)CCO2 | 4.6 nM | – | 6.71 | – |
| Cn1c(CNc2cccc(C(=O)N[C@H]3CCOc4c(Br)cccc43)c2)nnc1-c1ccncn1 | 3.6 nM | – | < 4.52 | – |
| COc1ncccc1CNC(=O)c1cccc(NCc2nnc(-c3ccncc3)n2CCO)c1 | 20 nM | – | 6.59 | – |
| CCCn1c(CNc2cccc(C(=O)NCc3cccnc3OC)c2)nnc1-c1ccncn1 | 3.8 nM | – | < 4.52 | – |
| Cc1cccc([C@@H](CO)NC(=O)c2cccc(NCc3nnc(-c4ccncn4)n3CCO)c2)c1 | 1.1 nM | – | 5.82 | – |
| O=C(NCCc1ccccc1OS(=O)(=O)F)c1cccc(NCc2nnc(-c3ccncc3)[nH]2)c1 | – | – | 4.88 | 7.14 |
| O=C(NCc1c(F)cccc1F)c1ccnc(NCc2nnc(-c3ccncc3)[nH]2)c1 | 34 nM | – | < 4.52 | – |
| O=C(NCc1ccccc1OS(=O)(=O)F)c1cccc(NCc2nnc(-c3ccncc3)[nH]2)c1 | – | – | 5.12 | 7.92 |
| O=C(NCc1cccc(F)c1)c1cccc(NCc2nnc3n2CCOc2cnccc2-3)c1 | 3.7 nM | – | 5.15 | – |
| COc1ncccc1CNC(=O)c1cccc(NCc2nnc3n2CCOc2cnccc2-3)c1 | 7.5 nM | – | < 4.52 | – |
| CCOc1ccccc1CNC(=O)c1cccc(NCc2nnc3n2CCOc2cnccc2-3)c1 | 9.1 nM | – | 5.63 | – |
| O=C(NCc1ccc(OS(=O)(=O)F)cc1)c1cccc(NCc2nnc(-c3ccncc3)[nH]2)c1 | – | – | < 4.52 | 7.70 |
| O=C(NCc1cccc2c1OCC2)c1cccc(NCc2nnc(-c3ccncn3)n2CCCO)c1 | 4.2 nM | – | 4.84 | – |
| O=C(NCc1cccc(OS(=O)(=O)F)c1)c1cccc(NCc2nnc(-c3ccncc3)[nH]2)c1 | – | – | < 4.52 | 7.59 |
| Cn1c(CNc2cc(C(=O)NCc3cnc4ccccn34)ccn2)nnc1-c1ccncn1 | 7.9 nM | – | 5.56 | – |
| Cn1c(CNc2cccc(C(=O)N[C@H]3CCOc4cc(Cl)ccc43)c2)nnc1-c1ccncn1 | 18 nM | – | < 4.53 | – |
| Cc1cc2c(cc1CNC(=O)c1cccc(NCc3nnc(-c4ccncn4)n3CCO)c1)OCCO2 | 1.4 nM | – | < 4.52 | – |
| CCCn1c(CNc2cccc(C(=O)NCc3c(OC)cccc3OC)c2)nnc1-c1ccncn1 | 3.1 nM | – | < 4.52 | – |
